This passage reports mutagenic call results from PubChem BioAssay AID1259407 (Chemical Carcinogenesis Research Information System (CCRIS), 2018).

Each structure is given as a SMILES string. Calls of active or inactive are those of the source. No rule for the calls is given here.

The data set has as its system CCRIS mutagenicity, Ames/micronucleus/aberration tests. As to the kind of experiment: CCRIS mutagenicity studies.
The mark [1] stands for this setting: Test System: AMES SALMONELLA TYPHIMURIUM, Strain/Indicator: TA98, Metabolic Activation: NONE, Method: STANDARD PLATE.
The mark [2] stands for this setting: Test System: AMES SALMONELLA TYPHIMURIUM, Strain/Indicator: TA100, Metabolic Activation: NONE, Method: STANDARD PLATE.
The mark [3] stands for this setting: Test System: AMES SALMONELLA TYPHIMURIUM, Strain/Indicator: TA98, Metabolic Activation: RAT, LIVER, S-9, AROCLOR 1254, Method: STANDARD PLATE.
The mark [4] stands for this setting: Test System: AMES SALMONELLA TYPHIMURIUM, Strain/Indicator: TA100, Metabolic Activation: RAT, LIVER, S-9, AROCLOR 1254, Method: STANDARD PLATE.

For `Nc1ccc(/C=C/c2cccc(Cl)c2)cc1`, the mutagenic call by setting is: (Test System: AMES SALMONELLA TYPHIMURIUM, Strain/Indicator: TA98(1,8-DNP6), Metabolic Activation: NONE, Method: STANDARD PLATE) “inactive; negative”; (Test System: AMES SALMONELLA TYPHIMURIUM, Strain/Indicator: TA98(1,8-DNP6), Metabolic Activation: S-9, Method: STANDARD PLATE) “active; positive”; under setting [1], “active; positive”; (Test System: AMES SALMONELLA TYPHIMURIUM, Strain/Indicator: TA98, Metabolic Activation: S-9, Method: STANDARD PLATE) “active; positive”; under setting [2], “inactive; negative”; (Test System: AMES SALMONELLA TYPHIMURIUM, Strain/Indicator: TA100, Metabolic Activation: S-9, Method: STANDARD PLATE) “active; positive”.
In the case of `CCCCOCC=O`, the mutagenic call is, setting by setting: (Test System: AMES SALMONELLA TYPHIMURIUM, Strain/Indicator: TA97A, Metabolic Activation: NONE, Method: STANDARD PLATE) “inactive; negative”; (Test System: AMES SALMONELLA TYPHIMURIUM, Strain/Indicator: TA97A, Metabolic Activation: RAT, LIVER, S-9, AROCLOR 1254, Method: STANDARD PLATE) “inactive; negative”; under setting [1], “inactive; negative”; under setting [3], “inactive; negative”; under setting [2], “inactive; negative”; under setting [4], “inactive; negative”. Further, the mutagenic call is “inactive; negative” (Test System: AMES SALMONELLA TYPHIMURIUM, Strain/Indicator: TA102, Metabolic Activation: NONE, Method: STANDARD PLATE); “inactive; negative” (Test System: AMES SALMONELLA TYPHIMURIUM, Strain/Indicator: TA102, Metabolic Activation: RAT, LIVER, S-9, AROCLOR 1254, Method: STANDARD PLATE); “inactive; negative” (Test System: CHINESE HAMSTER OVARY, Strain/Indicator: CHO-AS52/6-THIOGUANINE, Metabolic Activation: NONE); “active; positive” (Test System: CHINESE HAMSTER V-79, Strain/Indicator: V-79 (HPRT)/6-THIOGUANINE, Metabolic Activation: NONE).
In the case of `CCCCOc1cc(N=Nc2ccc(N(CC)CC)cc2)ccc1N=Nc1c(S(=O)(=O)O)cc2ccc(N)cc2c1O`, the mutagenic call by setting is: under setting [1], “inactive; negative”; under setting [3], “active; positive”; under setting [2], “inactive; negative”; under setting [4], “inactive; negative”; (Test System: AMES SALMONELLA TYPHIMURIUM, Strain/Indicator: TA1538, Metabolic Activation: NONE, Method: STANDARD PLATE) “inactive; negative”; (Test System: AMES SALMONELLA TYPHIMURIUM, Strain/Indicator: TA1538, Metabolic Activation: RAT, LIVER, S-9, AROCLOR 1254, Method: STANDARD PLATE) “active; positive”.
Consider `CCCCCCCC/C=C\CCCCCCCC(N)=O`, for which the mutagenic call (Test System: Ames Salmonella typhimurium, Strain/Indicator: TA98, Metabolic Activation: None, Method: Preincubation) was “inactive; negative. precipitation at 3 highest doses”; the mutagenic call (Test System: Ames Salmonella typhimurium, Strain/Indicator: TA98, Metabolic Activation: Rat, Liver, S9, Phenobarbital and 5,6-benzoflavone, Method: Preincubation) is “inactive; negative. precipitation at 3 highest doses”; the mutagenic call (Test System: Ames Salmonella typhimurium, Strain/Indicator: TA100, Metabolic Activation: None, Method: Preincubation) was “inactive; negative. precipitation at 3 highest doses”; the mutagenic call (Test System: Ames Salmonella typhimurium, Strain/Indicator: TA100, Metabolic Activation: Rat, Liver, S9, Phenobarbital and 5,6-benzoflavone, Method: Preincubation) was “inactive; negative. precipitation at 3 highest doses”; the mutagenic call (Test System: Ames Salmonella typhimurium, Strain/Indicator: TA1535, Metabolic Activation: None, Method: Preincubation) was “inactive; negative. precipitation at 3 highest doses”; the mutagenic call (Test System: Ames Salmonella typhimurium, Strain/Indicator: TA1535, Metabolic Activation: Rat, Liver, S9, Phenobarbital and 5,6-benzoflavone, Method: Preincubation) was “inactive; negative. precipitation at 3 highest doses”. For the same compound, the mutagenic call is, setting by setting: (Test System: Ames Salmonella typhimurium, Strain/Indicator: TA1537, Metabolic Activation: None, Method: Preincubation) “inactive; negative. precipitation at 3 highest doses”; (Test System: Ames Salmonella typhimurium, Strain/Indicator: TA1537, Metabolic Activation: Rat, Liver, S9, Phenobarbital and 5,6-benzoflavone, Method: Preincubation) “inactive; negative. precipitation at 3 highest doses”; (Test System: E. coli, Strain/Indicator: WP2uvrA/pKM101, Metabolic Activation: None, Method: Preincubation) “inactive; negative. precipitation at 3 highest doses”; (Test System: E. coli, Strain/Indicator: WP2uvrA/pKM101, Metabolic Activation: Rat, Liver, S9, Phenobarbital and 5,6-benzoflavone, Method: Preincubation) “inactive; negative. precipitation at 3 highest doses”.
On to `Cc1cc(=O)oc2cc(O)cc(O)c12`, for which the mutagenic call runs as follows: (Test System: AMES SALMONELLA TYPHIMURIUM, Strain/Indicator: TA98, Metabolic Activation: HAMSTER, LIVER, S-9, AROCLOR 1254, Method: PREINCUBATION) “inactive; negative”; (Test System: AMES SALMONELLA TYPHIMURIUM, Strain/Indicator: TA98, Metabolic Activation: NONE, Method: PREINCUBATION) “inactive; negative”; (Test System: AMES SALMONELLA TYPHIMURIUM, Strain/Indicator: TA98, Metabolic Activation: RAT, LIVER, S-9, AROCLOR 1254, Method: PREINCUBATION) “inactive; negative”; (Test System: AMES SALMONELLA TYPHIMURIUM, Strain/Indicator: TA100, Metabolic Activation: HAMSTER, LIVER, S-9, AROCLOR 1254, Method: PREINCUBATION) “inactive; negative”; (Test System: AMES SALMONELLA TYPHIMURIUM, Strain/Indicator: TA100, Metabolic Activation: NONE, Method: PREINCUBATION) “inactive; negative”; (Test System: AMES SALMONELLA TYPHIMURIUM, Strain/Indicator: TA100, Metabolic Activation: RAT, LIVER, S-9, AROCLOR 1254, Method: PREINCUBATION) “inactive; negative”. Moreover, the mutagenic call is, setting by setting: (Test System: AMES SALMONELLA TYPHIMURIUM, Strain/Indicator: TA1535, Metabolic Activation: HAMSTER, LIVER, S-9, AROCLOR 1254, Method: PREINCUBATION) “inactive; negative”; (Test System: AMES SALMONELLA TYPHIMURIUM, Strain/Indicator: TA1535, Metabolic Activation: NONE, Method: PREINCUBATION) “inactive; negative”; (Test System: AMES SALMONELLA TYPHIMURIUM, Strain/Indicator: TA1535, Metabolic Activation: RAT, LIVER, S-9, AROCLOR 1254, Method: PREINCUBATION) “inactive; negative”; (Test System: AMES SALMONELLA TYPHIMURIUM, Strain/Indicator: TA1537, Metabolic Activation: HAMSTER, LIVER, S-9, AROCLOR 1254, Method: PREINCUBATION) “inactive; negative”; (Test System: AMES SALMONELLA TYPHIMURIUM, Strain/Indicator: TA1537, Metabolic Activation: NONE, Method: PREINCUBATION) “inactive; negative”; (Test System: AMES SALMONELLA TYPHIMURIUM, Strain/Indicator: TA1537, Metabolic Activation: RAT, LIVER, S-9, AROCLOR 1254, Method: PREINCUBATION) “inactive; negative”.
